In PMC6024778 (Viruses, 2018):
Structures can show the parent of a compound that is named as a salt. Where two headings read alike, the source gives them in different places.

Legend:
MERS-CoV [1] = experiment: microbe, parasite or virus in culture; format: cell-based
in vitro [2] = conditions: human
MERS-CoV [3] = format: cell-based
[4] = test system: MERS-CoV nucleocapsid (N) protein; format: cell-based
rMERS-CoV = experiment: microbe, parasite or virus in culture; format: cell-based, MERS-CoV; conditions: Middle East respiratory syndrome-related coronavirus, Huh-7, 72 h
HCoV-229E = experiment: microbe, parasite or virus in culture; format: cell-based; conditions: Human coronavirus 229E
HCoV-OC43 = experiment: microbe, parasite or virus in culture; format: cell-based, betacoronavirus OC43 strain; conditions: Betacoronavirus 1, OC43
[5] = test system: Feline infectious peritonitis virus (FIPV); experiment: microbe, parasite or virus in culture; format: cell-based; conditions: Alphacoronavirus 1
MERS-CoV [6] = format: cell-based; remark: listed apart in the source
MERS-CoV [7] = format: cell-based; remark: listed apart in the source
MERS-CoV [8] = format: cell-based; remark: listed apart in the source
MERS-CoV [9] = format: cell-based; remark: listed apart in the source
in vitro [10] = conditions: cat
[11] = Middle East respiratory syndrome-related coronavirus, Huh-7, 72 h

Structure (SMILES) | EC50 (MERS-CoV [1]; read-out: EC50) [µM] | EC50 (MERS-CoV [1]; [11]) [µM] | CC50 (in vitro [2]) [µM] | further results
CCN(CC)Cc1cc(Nc2ccnc3cc(Cl)ccc23)ccc1O [Amodiaquine dihydrochloride dehydrate] | 2.4 ± 0.7 | – | – | –
CCN(CC)CCCC(C)Nc1ccnc2cc(Cl)ccc12 (stereo not shown) [Chloroquine diphosphate] | – | 12 ± 3 | > 50 | –
O=C(Nc1ccncc1)c1cc([N+](=O)[O-])ccc1Cl [N1-(4-pyridyl)-2-chloro-5-nitrobenzamide] | – | 10.5 ± 0.3 | > 50 | –
CC(=O)c1ccc2c(c1)N(CCCN1CCN(CCO)CC1)c1ccccc1S2 [Acetophenazine maleate] | 11.2 ± 5 | – | – | CC50 (Huh-7 cells): 23.6 ± 3.8 µM
COc1ccc2c(c1)N(C[C@H](C)CN(C)C)c1ccccc1S2 [Methotrimeprazine maleate salt] | 2.5 | – | – | CC50 (Huh-7 cells): 24.5 µM
CN1CCN(c2nc(C3=C(c4c[nH]c5ccccc45)C(=O)NC3=O)c3ccccc3n2)CC1 [Sotrastaurin] | – | ~9.7 | > 50 | –
COc1ccc(C2=N[C@@H](c3ccc(Cl)cc3)[C@@H](c3ccc(Cl)cc3)N2C(=O)N2CCNC(=O)C2)c(OC(C)C)c1 [Nutlin-3] | – | 6.9 ± 1.4 | 26.8 ± 1.6 | –
CCN(CCO)CCCC(C)Nc1ccnc2cc(Cl)ccc12 (stereo not shown) [Hydroxychloroquine sulfate] | – | 13.3 ± 2.1 | > 50 | –
Nc1ccn([C@@H]2O[C@H](CO)[C@@H](O)C2(F)F)c(=O)n1 [Gemcitabine, gemcitabine hydrochloride] | – | 1.2 | – | production of infectious MERS-CoV particles (MERS-CoV [3]): completely abolished; viral N protein expression [4]: completely abolished
OCCOCCN1CCN(C(c2ccccc2)c2ccc(Cl)cc2)CC1 (stereo not shown) [Hydroxyzine pamoate] | – | 14.4 ± 3.4 | > 50 | –
CN(C)CC/C=C1\c2ccccc2CSc2ccccc21 [Dosulepin hydrochloride] | – | 3.4 | 28.9 | –
CN1CCN(CCOc2cc(OC3CCOCC3)c3c(Nc4c(Cl)ccc5c4OCO5)ncnc3c2)CC1 [Saracatinib] | – | 2.9 ± 0.6 | – | selectivity index (SI) (MERS-CoV [1]): > 17; EC50 (rMERS-CoV): 9.3 µM; EC50 (HCoV-229E): 2.4 µM; EC50 (HCoV-OC43): 5.1 µM; EC50 [5]: 7 µM; reduction of viral titer (MERS-CoV [3]): marginal reduction; intracellular viral genomic (ORF1a) and mRNA (upE) syntheses (MERS-CoV [6]): near complete inhibition; antiviral activity (viral titer) (MERS-CoV [7]): less effective; reduction of MERS-CoV titer (MERS-CoV [7]): more pronounced; viral titer (MERS-CoV [7]): marked reduction; reduction in infectious virus titers (MERS-CoV [8]): ~ 80%; intracellular viral genomic RNA and mRNA expressions (MERS-CoV [9]): significant decrease; syntheses of intracellular viral genomic RNA and mRNAs (MERS-CoV [9]): severely affected; viral genomic RNA and mRNA syntheses (MERS-CoV [9]): near complete inhibition; CC50 (Huh-7 cells; human): 57 ± 5.5 µM; CC50 (in vitro [10]): > 50 µM
CCN(CC)Cc1cc(Nc2ccnc3cc(Cl)ccc23)ccc1O [Amodiaquine dihydrochloride] | 2.1 ± 0.7 | – | – | –
